Experimental data: patent US20220226321A1, “INHIBITOR OF MNK FOR THE TREATMENT OF NEUROPATHIC PAIN” (Board of Regents, The University of Texas System, priority 2019, published 2022)

Columns and labels:
[1] = test system: cultured mouse DRG neurons; assay: microelectrode array (MEA) recordings of cultured DRG neurons exposed to IL-6; format: cell-based; details: for spontaneous firing: IL-6 100 ng/ml, tomivosertib 25 nM co-treatment
Procedure: Extracellular electrophysiology. Substrate-integrated microelectrode array (MEA) recordings were performed using PDL and laminin pre-treated 12-well MEA plates (Axion Biosystems, USA) and an Axion Maestro recording system. DRG sensory neurons were dissected, dissociated, and seeded as previously described (Moy et al., 2017). […] Cultures were maintained at 37° C., 5% CO2, and ≥90% humidity throughout the recordings. Briefly, 30 min baseline recordings were carried out following a 30 min acclimation period. […] Recordings were then collected continuously for 3 hours. […] Online and offline MEA data analysis was performed using Axion's AxIS, NeuralMetrics Tools, and NeuroExplorer (NeuroExplorer, USA). Physiologically relevant extracellular action potentials were defined as previously described^29.

paclitaxel-treated mice = assay: thermal latency (Hot/Cold plate) in paclitaxel-induced CIPN; format: in vivo, mouse; details: for thermal hyperalgesia: acute treatment
Procedure: Thermal and mechanical testing. Mice were housed on 12-hr light-/dark cycles with lights on at 7:00 AM. Mice had food and water available ad libitum. All behavioral experiments were performed between the hours of 9:00 AM and 6:00 PM. Mice were randomized to groups from multiple cages to avoid using mice from experimental groups that were cohabitating. Sample size was estimated as […] using a power calculation with 80% power, expectations of 50% effect size, with alpha set to 0.05. The number of animals used in each experiment was based on available animals of the appropriate sex and age but was at least n=5 for experiments. Standard deviation for power calculations was based on previously published data using similar models. Mice were habituated for 1 hr to clear acrylic behavioral chambers before beginning the experiment. Mechanical paw withdrawal thresholds were measured using the up-down method (Chaplan et al., 1994) with calibrated Von Frey filaments (Stoelting Company, Wood Dale, Ill.). Thermal latency was measured using a Hot/Cold plate setting the temperature at 49, 50 and 52° C. […] The experimenter was blinded to the genotype of the mice and drug condition in all experiments.

SNI mice = assay: mechanical withdrawal threshold (von Frey) after SNI; format: in vivo, mouse; details: 1 or 3 hours after treatment on days 1 and 5 of 7-day schedule, 10 mg/kg p.o.
Procedure: Surgery. Spared nerve injury (SNI) was performed by the ligation and cutting of the tibial and peroneal branches of the left sciatic nerve trifurcation, leaving the sural branch intact as previously described (Decosterd and Woolf, 2000). Sham surgeries were performed the same way but without cutting the nerve. Mice were allowed to recover for 2 weeks following surgery.
Mechanical withdrawal threshold. Tactile sensitivity was measured by probing the left outer surface of the left hindpaw with a series of calibrated von Frey filaments. Mechanical withdrawal thresholds were assessed in all animals before (baseline) and after (2 weeks) surgery to confirm neuropathy. Withdrawal thresholds were calculated using the up-down method (Chaplan et al., 1994).

[2] = test system: models which harbor activating MyD88 mutations; details: in vivo, multiple models; cited from earlier work
DLBCL cell lines = details: cited from earlier work

In the case of Cc1cc(Nc2cc(N)ncn2)c(=O)n2c1C(=O)NC21CCCCC1 [eFT508, Tomivosertib], the “firing, tomivosertib only vs IL-6 only group” value ([1]; 25 nM) is reported as “reduction in firing”, the spontaneous firing ([1]; listed as Tomivosertib) is reported as “significantly reduced” and the spontaneous firing ([1]; listed as tomivosertib) is reported as “attenuated”. For the same compound, the “firing rate at treatment time points vs baseline recording” value ([1]; tomivosertib only group) was “no significant difference in firing rate”, the thermal hypersensitivity (paclitaxel-treated mice; 10 mg/kg after full development of CIPN) was “reversal” and the thermal hyperalgesia (paclitaxel-treated mice; at 3 hrs) was “did not significantly attenuate”. The thermal hyperalgesia (paclitaxel-treated mice; at 24 hrs) was “a significant effect was observed”, the mechanical withdrawal thresholds (SNI mice) was “had no effect” and the anti-tumor activity [2] was “significant anti-tumor activity”. For the same compound, the “production of pro-inflammatory cytokines including TNFα, IL-6, IL-10 and CXCL10” value (DLBCL cell lines; TMD8, OCI-Ly3 and HBL1 DLBCL cell lines) was “dose-dependent decreases”, the “decrease in TNFα mRNA half-life” value (DLBCL cell lines) was 2 fold and the anti-proliferative activity (DLBCL cell lines; multiple DLBCL cell lines) was “anti-proliferative activity”.
